The structures appear in SMILES notation.

In one test the target is T1, FGFR2 V564F (Homo sapiens, UniProt P21802, V564F).
T1 construct: P41212 (Transcription factor ETV6)
Kind of test: Cell proliferation assay for Tel-FGFR2 V564F in BaF3. The test is classed as cell-based. To be noted: BaF3 cells expressing FGFR2 V564F fusion, 48 hrs, CellTiter Glo. As for the experimental part:
By transfection, cell strains of the intracellular kinase domain fusion protein of TEL-FGFR2 WT or the intracellular domain fusion proteins containing FGFR2 V564, V564F, V564L, N549K and K659M mutations were stably expressed in Baf cells. On day 1, the cell suspension was plated into a 96-well plate containing growth medium (DMEM containing 1% Glutamax, 10% FBS and 1% Pen/Strep) at 2000-4000 cells/90 μL/per well, and then the mixture was incubated overnight at 37° C. and 5% CO2. On day 2, 10 μL of growth medium containing a 10-fold stock solution of test compound was added to the cell culture (9 dose points, 3× serial dilution, starting from 1 μM, finally 0.3% DMSO). After incubation at 37° C. and 5% CO2 for 48 hrs, 50 μL of CellTiter Glo (CTG) reagent was added to the cell-containing 96-well plate on day 3, and the plate was then incubated at room temperature for 10 min. Then relative light units (RLUs) were measured on a microplate reader with a luminescence detection module. RLU values were normalized to % survival, and concentration-response curves were plotted using Prism to calculate IC50 (nM).
For orientation: Cellular ATP, detected with luciferase, serves as a proxy for viable cell number.

The target of the next test is T2, FGFR3 V555M (Homo sapiens, UniProt P22607, V555M).
T2 construct: P41212 (Transcription factor ETV6)
T2 sequence (P22607 472-761 V555M limits assumed): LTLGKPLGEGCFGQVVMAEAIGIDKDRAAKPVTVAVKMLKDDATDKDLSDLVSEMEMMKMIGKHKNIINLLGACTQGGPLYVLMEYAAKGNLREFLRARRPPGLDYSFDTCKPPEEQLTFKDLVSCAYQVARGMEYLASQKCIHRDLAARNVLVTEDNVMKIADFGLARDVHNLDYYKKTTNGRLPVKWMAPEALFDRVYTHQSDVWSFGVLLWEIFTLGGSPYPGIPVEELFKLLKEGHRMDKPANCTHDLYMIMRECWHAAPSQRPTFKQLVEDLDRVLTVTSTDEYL
In words: Cell proliferation assay for FGFR3 V555M in BaF3. The format is cell-based. Conditions: BaF3 cells expressing FGFR3 V555M fusion, 48 hrs, CellTiter Glo. The procedure: For the compounds of the Examples of the present invention, cell strains of TEL-FGFR3 WT intracellular kinase domain fusion protein or intracellular domain fusion protein containing FGFR3 V555M or FGFR3 N540K mutation were stably expressed in Baf cells by transfection and were used to determine the cell proliferation effect of BaF3-Tel-FGFR3 WT. FGFR3 V555M or FGFR3 N540K. The specific test process was as follows: • 1) The cell suspension was plated into a 96-well plate containing growth medium (DMEM containing 1% Glutamax, 10% FBS and 1% Pen/Strep) at 2000-4000 cells/90 μL/per well, and then the mixture was incubated overnight at 37° C. and 5% CO2. • 2) 10 μL of growth medium containing a 10-fold stock solution of test compound was added to the cell culture (9 dose points, 3× serial dilution, starting from 1 μM, finally 0.3% DMSO). • 3) The mixture was incubated at 37° C. and 5% CO2 for 48 hrs. • 4) 50 μL of CellTiter Glo (CTG) reagent was added to the cell-containing 96-well plate, and the plate was then incubated at room temperature for 10 min. • 5) Relative light units (RLUs) were measured on a microplate reader with a luminescence detection module. RLU values were normalized to % survival, and concentration-response curves were plotted using Prism to calculate IC50 (nM).

T1 sequence (P21802 481-770 V564F limits assumed): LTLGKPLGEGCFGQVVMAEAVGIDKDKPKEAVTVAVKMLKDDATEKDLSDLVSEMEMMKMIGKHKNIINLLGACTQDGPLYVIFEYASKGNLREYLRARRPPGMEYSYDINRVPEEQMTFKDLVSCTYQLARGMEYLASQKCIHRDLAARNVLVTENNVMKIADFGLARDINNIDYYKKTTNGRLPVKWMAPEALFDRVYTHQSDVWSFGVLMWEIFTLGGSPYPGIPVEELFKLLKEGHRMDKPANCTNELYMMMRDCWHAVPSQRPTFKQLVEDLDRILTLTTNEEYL

For the molecule `C=CC(=O)N1CC[C@H](n2nc(C#Cc3cc4nc(C(F)F)sc4cc3F)c3c(N)ncnc32)C1` [Example 60, (S)-1-(3-(4-amino-3-((2-(difluoromethyl)-6-fluoro-benzo[d]thiazol-5-yl)ethynyl)-1H-pyrazolo[3,4-d]pyrimidin-1-yl)pyrrolidin-1-yl)prop-2-en-1-one], at FGFR2 V564F, the IC50 (commonly the concentration at which inhibition is half-maximal) was 0.5 to 5 nM.
Turning to `C=CC(=O)N1CC[C@H](n2cc(C#Cc3ccc4sc(C5CC5)nc4c3)c3c(N)ncnc32)C1` [Example 43, (S)-1-(3-(4-amino-5-((2-cyclopropylbenzo[d]thiazol-5-yl)ethynyl)-7H-pyrrolo [2,3-d]pyrimidin-7-yl)pyrrolidin-1-yl)prop-2-en-1-one], the IC50 against FGFR2 V564F was 0.5 to 5 nM.
As for `C=CC(=O)N1CC[C@H](n2nc(C#Cc3cc4nc(NC5CC5)oc4cc3F)c3c(N)ncnc32)C1` [Example 33, (S)-1-(3-(4-amino-3-((2-(cyclopropylamino)-6-fluorobenzo[d]oxazol-5-yl)ethynyl)-1H-pyrazolo[3,4-d]pyrimidin-1-yl)pyrrolidin-1-yl)prop-2-en-1-one], the concentration for half-maximal inhibition (IC50) against FGFR2 V564F fell in the range of 0.5 to 5 nM; on FGFR3 V555M it was 50 to 500 nM.
`C=CC(=O)N1CC[C@H](n2cc(C#Cc3c(F)cc4oc(N5CCC5)nc4c3F)c3c(N)ncnc32)C1` [Example 73, (S)-1-(3-(4-amino-5-((2-(azetidin-1-yl)-4,6-difluoro-benzo[d]oxazol-5-yl)ethynyl)-7H-pyrrolo[2,3-d]pyrimidin-7-yl)pyrrolidin-1-yl) prop-2-en-1-one]: the values for the 50% inhibitory concentration (IC50) against FGFR2 V564F and against FGFR3 V555M were at most 0.5 nM and 0.5 to 5 nM, respectively.
The matching figures for `C=CC(=O)N1CC[C@H](n2cc(C#Cc3cc4nc(C(F)F)sc4cc3F)c3c(N)ncnc32)C1` [Example 50, (S)-1-(3-(4-amino-5-((2-(difluoromethyl)-6-fluoro-benzo[d]thiazol-5-yl)ethynyl)-7H-pyrrolo[2,3-d]pyrimidin-7-yl)pyrrolidin-1-yl) prop-2-en-1-one]: 0.5 to 5 nM and 5 to 50 nM.
In the case of `C=CC(=O)N1CCC(c2cc(C#Cc3ccc4oc(C5CC5)nc4c3)c3c(N)ncnn23)C1` (stereo not shown) [Example 63, 1-(3-(4-amino-5-((2-cyclo-propylbenzo[d]oxazol-5-yl)ethynyl)pyrrolo[2,1-f][1,2,4]triazin-7-yl)pyrrolidin-1-yl)prop-2-en-1-one], the values for the half-inhibitory concentration (IC50) on FGFR2 V564F and at FGFR3 V555M were 0.5 to 5 nM and 5 to 50 nM, respectively.
The molecule `C=CC(=O)N1CC[C@H](n2cc(C#Cc3ccc4oc(C(C)C)nc4c3)c3c(N)ncnc32)C1` [Example 4, (S)-1-(3-(4-amino-5-((2-isopropylbenzo[d]oxazol-5-yl)ethynyl)-7H-pyrrolo[2,3-d]pyrimidin-7-yl)pyrrolidin-1-yl)prop-2-en-1-one] showed a half-maximal inhibitory concentration (IC50) against FGFR2 V564F of 0.5 to 5 nM.
Take `C=CC(=O)N1CC[C@H](n2nc(C#Cc3cc4nc(NC)oc4cc3F)c3c(N)ncnc32)C1` [Example 29, (S)-1-(3-(4-amino-3-((6-fluoro-2-(methylamino)benzo[d]oxazol-5-yl)ethynyl)-1H-pyrazolo[3,4-d]pyrimidin-1-yl)pyrrolidin-1-yl) prop-2-en-1-one]: the half-maximal inhibitory concentration (IC50) on FGFR2 V564F lay within 0.5 to 5 nM; against FGFR3 V555M it was 5 to 50 nM.
On to `C=CC(=O)N1CC[C@H](n2nc(C#Cc3ccc4oc(C5(C)CC5)nc4c3)c3c(N)ncnc32)C1` [Example 39, (S)-1-(3-(4-amino-3-((2-(1-methylcyclopropyl)benzo [d]oxazol-5-yl)ethynyl)-1H-pyrazolo[3,4-d]pyrimidin-1-yl)pyrrolidin-1-yl) prop-2-en-1-one], for which, at FGFR2 V564F, the IC50 lay within 0.5 to 5 nM.
On FGFR2 V564F, `C=CC(=O)N1CC[C@H](n2cc(C#Cc3ccc4oc(C5CCC5)nc4c3)c3c(N)ncnc32)C1` [Example 5, (S)-1-(3-(4-amino-5-((2-cyclobutylbenzo[d]oxazol-5-yl)ethynyl)-7H-pyrrolo [2,3-d]pyrimidin-7-yl)pyrrolidin-1-yl)prop-2-en-1-one] yielded an IC50 of 0.5 to 5 nM.
Regarding `C=CC(=O)N1CC[C@H](n2cc(C#Cc3cc4nc(C5CC5)oc4cc3F)c3c(N)ncnc32)C1` [Example 65, (S)-1-(3-(4-amino-5-((2-cyclopropyl-6-fluorobenzo [d]oxazol-5-yl)ethynyl)-7H-pyrrolo[2,3-d]pyrimidin-7-yl)pyrrolidin-1-yl)prop-2-en-1-one], the concentration for half-maximal inhibition (IC50) is at most 0.5 nM on FGFR2 V564F and 0.5 to 5 nM against FGFR3 V555M.
On FGFR3 V555M, `C=CC(=O)N1CC[C@H](n2cc(C#Cc3ccc4oc(C(F)(F)F)nc4c3)c3c(N)ncnc32)C1` [Example 76, (S)-1-(3-(4-amino-5-((2-(trifluoromethyl)benzo[d]oxazol-5-yl)ethynyl)-7H-pyrrolo[2,3-d]pyrimidin-7-yl)pyrrolidin-1-yl)prop-2-en-1-one] came in with a 50% inhibitory concentration (IC50) of 50 to 500 nM.
Take `C=CC(=O)N1CC[C@H](n2nc(C#Cc3cc4nc(N(C)C)oc4cc3F)c3c(N)ncnc32)C1` [Example 31, (S)-1-(3-(4-amino-3-((2-(dimethylamino)-6-fluoro-benzo[d]oxazol-5-yl)ethynyl)-1H-pyrazolo[3,4-d]pyrimidin-1-yl)pyrrolidin-1-yl)prop-2-en-1-one]: the figures for the half-inhibitory concentration (IC50) on FGFR2 V564F and on FGFR3 V555M were 0.5 to 5 nM and 5 to 50 nM, respectively.
In the case of `C=CC(=O)N1CC[C@H](n2nc(C#Cc3cc4nc(N5CCC5)oc4cc3F)c3c(N)ncnc32)C1` [Example 34, (S)-1-(3-(4-amino-3-((2-(azetidin-1-yl)-6-fluorobenzo [d]oxazol-5-yl)ethynyl)-1H-pyrazolo[3,4-d]pyrimidin-1-yl)pyrrolidin-1-yl) prop-2-en-1-one], the half-maximal inhibitory concentration (IC50) at FGFR2 V564F and on FGFR3 V555M was 0.5 to 5 nM in each case.
As for `C=CC(=O)N1CCC(c2cc(C#Cc3ccc4sc(C)nc4c3)c3c(N)ncnn23)C1` (stereo not shown) [Example 70, 1-(3-(4-amino-5-((2-methyl-benzo[d]thiazol-5-yl)ethynyl)pyrrolo[2,1-f][1,2,4]triazin-7-yl)pyrrolidin-1-yl) prop-2-en-1-one], the IC50 against FGFR2 V564F was in the range of 0.5 to 5 nM.
Consider `C=CC(=O)N1CC[C@H](n2nc(C#Cc3cc4nc(C5CCC5)oc4cc3F)c3c(N)ncnc32)C1` [Example 38, (S)-1-(3-(4-amino-3-((2-cyclobutyl-6-fluorobenzo [d]oxazol-5-yl)ethynyl)-1 H-pyrazolo[3,4-d]pyrimidin-1-yl)pyrrolidin-1-yl) prop-2-en-1-one], for which the IC50 against FGFR2 V564F lay within 0.5 to 5 nM; on FGFR3 V555M, 5 to 50 nM.
On the same counts, the results for `C=CC(=O)N1CC[C@H](n2cc(C#Cc3cc4nc(C)sc4cc3F)c3c(N)ncnc32)C1` [Example 47, (S)-1-(3-(4-amino-5-((6-fluoro-2-methylbenzo[d]thiazol-5-yl)ethynyl)-7H-pyrrolo[2,3-d]pyrimidin-7-yl)pyrrolidin-1-yl)prop-2-en-1-one] are at most 0.5 nM and 5 to 50 nM.
As to `C=CC(=O)N1CC[C@H](n2nc(C#Cc3cc4nc(C5CC5)oc4cc3F)c3c(N)ncnc32)C1` [Example 35, (S)-1-(3-(4-amino-3-((2-cyclopropyl-6-fluorobenzo [d]oxazol-5-yl)ethynyl)-1H-pyrazolo[3,4-d]pyrimidin-1-yl)pyrrolidin-1-yl) prop-2-en-1-one], the figures for the IC50 on FGFR2 V564F and against FGFR3 V555M were at most 0.5 nM and 0.5 to 5 nM, respectively.
For the molecule `C=CC(=O)N1CC[C@H](n2nc(C#Cc3cc4nc(NCC)oc4cc3F)c3c(N)ncnc32)C1` [Example 30, (S)-1-(3-(4-amino-3-((2-(ethylamino)-6-fluorobenzo [d]oxazol-5-yl)ethynyl)-1H-pyrazolo[3,4-d]pyrimidin-1-yl)pyrrolidin-1-yl) prop-2-en-1-one], the IC50 on FGFR2 V564F was in the range of 0.5 to 5 nM; against FGFR3 V555M, 5 to 50 nM.

For the origin of these results see patent US20230303575A1, “FGFR AND MUTATION INHIBITOR THEREOF, PREPARATION METHOD THEREFOR AND USE THEREOF” (Abbisko Therapeutics Co., Ltd., priority 2020, published 2023).
